Test results as given in PubChem BioAssay (NCI).
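Grown in 96-well plates, cells were treated for 48 hours with each compound at five concentrations. Insufficient inhibition: endpoint recorded as highest concentration tested. TGI denotes the concentration required for complete inhibition of growth.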

Tests used:
Test in all cases: inhibition of tumour cell growth, NCI panel, 48 h
786-0 renal = test system: 786-0 renal
A549 NSCLC = test system: A549 NSCLC
ACHN renal = test system: ACHN renal
BT-549 breast = test system: BT-549 breast
CAKI-1 renal = test system: CAKI-1 renal
CCRF-CEM leukemia = test system: CCRF-CEM leukemia
COLO 205 colon = test system: COLO 205 colon
DU-145 prostate = test system: DU-145 prostate
EKVX NSCLC = test system: EKVX NSCLC
HCC-2998 colon = test system: HCC-2998 colon
HCT-116 colon = test system: HCT-116 colon
HCT-15 colon = test system: HCT-15 colon
HL-60(TB) leukemia = test system: HL-60(TB) leukemia
HOP-62 NSCLC = test system: HOP-62 NSCLC
HOP-92 NSCLC = test system: HOP-92 NSCLC
HT29 colon = test system: HT29 colon
K-562 leukemia = test system: K-562 leukemia
KM12 colon = test system: KM12 colon
M14 melanoma = test system: M14 melanoma
MALME-3M melanoma = test system: MALME-3M melanoma
MCF7 breast = test system: MCF7 breast
MDA-MB-231 breast = test system: MDA-MB-231 breast
MDA-MB-435 = test system: MDA-MB-435
MDA-N = test system: MDA-N
MOLT-4 leukemia = test system: MOLT-4 leukemia
NCI-H226 lung = test system: NCI-H226 lung
NCI-H23 lung = test system: NCI-H23 lung
NCI-H460 lung = test system: NCI-H460 lung
NCI-H522 lung = test system: NCI-H522 lung
NCI/ADR-RES ovarian = test system: NCI/ADR-RES ovarian
OVCAR-3 ovarian = test system: OVCAR-3 ovarian
OVCAR-4 ovarian = test system: OVCAR-4 ovarian
OVCAR-5 ovarian = test system: OVCAR-5 ovarian
OVCAR-8 ovarian = test system: OVCAR-8 ovarian
PC-3 prostate = test system: PC-3 prostate
RPMI-8226 leukemia = test system: RPMI-8226 leukemia
RXF 393 renal = test system: RXF 393 renal
SF-268 CNS = test system: SF-268 CNS
SF-295 CNS = test system: SF-295 CNS
SK-MEL-2 melanoma = test system: SK-MEL-2 melanoma
SN12C renal = test system: SN12C renal
SNB-19 CNS = test system: SNB-19 CNS
SR leukemia = test system: SR leukemia
SW-620 colon = test system: SW-620 colon
T-47D breast = test system: T-47D breast
TK-10 renal = test system: TK-10 renal
U251 CNS = test system: U251 CNS
UACC-257 melanoma = test system: UACC-257 melanoma
UO-31 renal = test system: UO-31 renal
IGROV1 ovarian = test system: IGROV1 ovarian
SK-MEL-28 melanoma = test system: SK-MEL-28 melanoma
SK-MEL-5 melanoma = test system: SK-MEL-5 melanoma
SK-OV-3 ovarian = test system: SK-OV-3 ovarian
SNB-75 CNS = test system: SNB-75 CNS
UACC-62 melanoma = test system: UACC-62 melanoma
A498 renal = test system: A498 renal
HS 578T breast = test system: HS 578T breast
LOX IMVI melanoma = test system: LOX IMVI melanoma
SF-539 CNS = test system: SF-539 CNS

Compound: CC(NO)/C(=N/O)c1ccco1 (configuration not stated)
- TGI (786-0 renal): > 10 µM
- TGI (A549 NSCLC): > 10 µM
- TGI (ACHN renal): > 10 µM
- TGI (BT-549 breast): > 10 µM
- TGI (CAKI-1 renal): > 10 µM
- TGI (CCRF-CEM leukemia): > 10 µM
- TGI (COLO 205 colon): > 10 µM
- TGI (DU-145 prostate): > 10 µM
- TGI (EKVX NSCLC): > 10 µM
- TGI (HCC-2998 colon): > 10 µM
- TGI (HCT-116 colon): > 10 µM
- TGI (HCT-15 colon): > 10 µM
- TGI (HL-60(TB) leukemia): > 10 µM
- TGI (HOP-62 NSCLC): > 10 µM
- TGI (HOP-92 NSCLC): > 10 µM
- TGI (HT29 colon): > 10 µM
- TGI (K-562 leukemia): > 10 µM
- TGI (KM12 colon): > 10 µM
- TGI (M14 melanoma): > 10 µM
- TGI (MALME-3M melanoma): > 10 µM
- TGI (MCF7 breast): > 10 µM
- TGI (MDA-MB-231 breast): > 10 µM
- TGI (MDA-MB-435): > 10 µM
- TGI (MDA-N): > 10 µM
- TGI (MOLT-4 leukemia): > 10 µM
- TGI (NCI-H226 lung): > 10 µM
- TGI (NCI-H23 lung): > 10 µM
- TGI (NCI-H460 lung): > 10 µM
- TGI (NCI-H522 lung): > 10 µM
- TGI (NCI/ADR-RES ovarian): > 10 µM
- TGI (OVCAR-3 ovarian): > 10 µM
- TGI (OVCAR-4 ovarian): > 10 µM
- TGI (OVCAR-5 ovarian): > 10 µM
- TGI (OVCAR-8 ovarian): > 10 µM
- TGI (PC-3 prostate): > 10 µM
- TGI (RPMI-8226 leukemia): > 10 µM
- TGI (RXF 393 renal): > 10 µM
- TGI (SF-268 CNS): > 10 µM
- TGI (SF-295 CNS): > 10 µM
- TGI (SK-MEL-2 melanoma): > 10 µM
- TGI (SN12C renal): > 10 µM
- TGI (SNB-19 CNS): > 10 µM
- TGI (SR leukemia): > 10 µM
- TGI (SW-620 colon): > 10 µM
- TGI (T-47D breast): > 10 µM
- TGI (TK-10 renal): > 10 µM
- TGI (U251 CNS): > 10 µM
- TGI (UACC-257 melanoma): > 10 µM
- TGI (UO-31 renal): > 10 µM

Compound: CC(C)(C)[Si](C)(C)Oc1cc(CO)cc2c1cc(=N)o[n+]2[O-]
- TGI (786-0 renal): > 10 µM
- TGI (A549 NSCLC): > 10 µM
- TGI (CAKI-1 renal): > 10 µM
- TGI (CCRF-CEM leukemia): > 10 µM
- TGI (COLO 205 colon): > 10 µM
- TGI (DU-145 prostate): > 10 µM
- TGI (EKVX NSCLC): > 10 µM
- TGI (HCC-2998 colon): > 10 µM
- TGI (HCT-15 colon): > 10 µM
- TGI (HL-60(TB) leukemia): > 10 µM
- TGI (HOP-62 NSCLC): > 10 µM
- TGI (HT29 colon): > 10 µM
- TGI (IGROV1 ovarian): > 10 µM
- TGI (K-562 leukemia): > 10 µM
- TGI (KM12 colon): > 10 µM
- TGI (M14 melanoma): > 10 µM
- TGI (MALME-3M melanoma): > 10 µM
- TGI (MCF7 breast): 9.25 µM
- TGI (MDA-MB-231 breast): > 10 µM
- TGI (MDA-N): > 10 µM
- TGI (MOLT-4 leukemia): 9.28 µM
- TGI (NCI-H23 lung): > 10 µM
- TGI (OVCAR-8 ovarian): > 10 µM
- TGI (PC-3 prostate): > 10 µM
- TGI (RPMI-8226 leukemia): > 10 µM
- TGI (RXF 393 renal): > 10 µM
- TGI (SF-268 CNS): > 10 µM
- TGI (SF-295 CNS): > 10 µM
- TGI (SK-MEL-28 melanoma): > 10 µM
- TGI (SK-MEL-5 melanoma): > 10 µM
- TGI (SK-OV-3 ovarian): > 10 µM
- TGI (SN12C renal): > 10 µM
- TGI (SNB-75 CNS): > 10 µM
- TGI (SR leukemia): 7.58 µM
- TGI (SW-620 colon): > 10 µM
- TGI (T-47D breast): > 10 µM
- TGI (TK-10 renal): > 10 µM
- TGI (UACC-257 melanoma): > 10 µM
- TGI (UACC-62 melanoma): > 10 µM

Compound: CNC/C(Cl)=N/S(=O)(=O)c1ccc(C)cc1
- TGI (786-0 renal): 25.2 µM
- TGI (A498 renal): 54.4 µM
- TGI (A549 NSCLC): 51.4 µM
- TGI (ACHN renal): 35.8 µM
- TGI (BT-549 breast): 51.7 µM
- TGI (CAKI-1 renal): 26.2 µM
- TGI (COLO 205 colon): 38.2 µM
- TGI (DU-145 prostate): 18.1 µM
- TGI (EKVX NSCLC): 40.4 µM
- TGI (HCC-2998 colon): 16.2 µM
- TGI (HCT-116 colon): 21.1 µM
- TGI (HCT-15 colon): > 100 µM
- TGI (HOP-62 NSCLC): 29.9 µM
- TGI (HOP-92 NSCLC): 51.1 µM
- TGI (HS 578T breast): > 100 µM
- TGI (HT29 colon): 60.4 µM
- TGI (IGROV1 ovarian): 91.2 µM
- TGI (K-562 leukemia): > 100 µM
- TGI (KM12 colon): 27.7 µM
- TGI (LOX IMVI melanoma): 27.3 µM
- TGI (M14 melanoma): 39.7 µM
- TGI (MALME-3M melanoma): 27.5 µM
- TGI (MCF7 breast): 23.7 µM
- TGI (MDA-MB-231 breast): 28.5 µM
- TGI (MDA-MB-435): 21.5 µM
- TGI (MDA-N): 29.5 µM
- TGI (NCI-H226 lung): 59.5 µM
- TGI (NCI-H23 lung): 26.2 µM
- TGI (NCI-H460 lung): 27.2 µM
- TGI (NCI-H522 lung): 24.9 µM
- TGI (NCI/ADR-RES ovarian): > 100 µM
- TGI (OVCAR-3 ovarian): 25.5 µM
- TGI (OVCAR-4 ovarian): 25.4 µM
- TGI (OVCAR-5 ovarian): 47.5 µM
- TGI (OVCAR-8 ovarian): > 100 µM
- TGI (PC-3 prostate): 22.8 µM
- TGI (RPMI-8226 leukemia): 33.5 µM
- TGI (RXF 393 renal): 9.34 µM
- TGI (SF-268 CNS): > 100 µM
- TGI (SF-295 CNS): 32.4 µM
- TGI (SF-539 CNS): 39.7 µM
- TGI (SK-MEL-2 melanoma): 34.4 µM
- TGI (SK-MEL-28 melanoma): > 100 µM
- TGI (SK-MEL-5 melanoma): 36.7 µM
- TGI (SK-OV-3 ovarian): 56.6 µM
- TGI (SN12C renal): 28.1 µM
- TGI (SNB-19 CNS): 68.2 µM
- TGI (SNB-75 CNS): 18.4 µM
- TGI (SR leukemia): 34.9 µM
- TGI (SW-620 colon): > 100 µM
- TGI (TK-10 renal): 28.6 µM
- TGI (U251 CNS): 20.5 µM
- TGI (UACC-257 melanoma): 25.4 µM
- TGI (UACC-62 melanoma): 21.9 µM
- TGI (UO-31 renal): 36.6 µM

Compound: CC(C)(Oc1ccccc1)C(=O)Sc1c(-c2ccccc2)c(=O)n(-c2ccccc2)c(=S)n1-c1ccccc1
- TGI (786-0 renal): > 100 µM
- TGI (A498 renal): > 100 µM
- TGI (A549 NSCLC): > 100 µM
- TGI (ACHN renal): > 100 µM
- TGI (CAKI-1 renal): > 100 µM
- TGI (CCRF-CEM leukemia): > 100 µM
- TGI (COLO 205 colon): > 100 µM
- TGI (DU-145 prostate): > 100 µM
- TGI (EKVX NSCLC): > 100 µM
- TGI (HCC-2998 colon): > 100 µM
- TGI (HCT-116 colon): > 100 µM
- TGI (HCT-15 colon): > 100 µM
- TGI (HL-60(TB) leukemia): 64.7 µM
- TGI (HOP-62 NSCLC): 52.8 µM
- TGI (HOP-92 NSCLC): > 100 µM
- TGI (HS 578T breast): 85.4 µM
- TGI (HT29 colon): > 100 µM
- TGI (IGROV1 ovarian): 47.6 µM
- TGI (K-562 leukemia): > 100 µM
- TGI (KM12 colon): 64.7 µM
- TGI (LOX IMVI melanoma): > 100 µM
- TGI (M14 melanoma): > 100 µM
- TGI (MALME-3M melanoma): > 100 µM
- TGI (MCF7 breast): > 100 µM
- TGI (MDA-MB-231 breast): 73.8 µM
- TGI (MDA-MB-435): 52.4 µM
- TGI (MDA-N): > 100 µM
- TGI (MOLT-4 leukemia): > 100 µM
- TGI (NCI-H226 lung): > 100 µM
- TGI (NCI-H23 lung): > 100 µM
- TGI (NCI-H460 lung): 67.3 µM
- TGI (NCI-H522 lung): 64.2 µM
- TGI (NCI/ADR-RES ovarian): > 100 µM
- TGI (OVCAR-3 ovarian): 96.4 µM
- TGI (OVCAR-4 ovarian): > 100 µM
- TGI (OVCAR-5 ovarian): > 100 µM
- TGI (OVCAR-8 ovarian): 44.1 µM
- TGI (RXF 393 renal): 63.2 µM
- TGI (SF-268 CNS): 80.2 µM
- TGI (SF-295 CNS): > 100 µM
- TGI (SF-539 CNS): 45.4 µM
- TGI (SK-MEL-28 melanoma): > 100 µM
- TGI (SK-OV-3 ovarian): 87.1 µM
- TGI (SN12C renal): > 100 µM
- TGI (SNB-19 CNS): > 100 µM
- TGI (SNB-75 CNS): > 100 µM
- TGI (SR leukemia): 57.8 µM
- TGI (SW-620 colon): > 100 µM
- TGI (T-47D breast): > 100 µM
- TGI (TK-10 renal): > 100 µM
- TGI (U251 CNS): 56.5 µM
- TGI (UACC-257 melanoma): > 100 µM
- TGI (UACC-62 melanoma): > 100 µM
- TGI (UO-31 renal): 82.8 µM
